Assay results reported in US10681909B2, “Herbicidal triazoles” (FMC Corporation, priority 2014, dated 2020).

Tests used:
[1] = test system: barnyardgrass; experiment: Test A preemergence; format: in vivo, Echinochloa crus-galli; conditions: 0 to 100 scale (0 no effect, 100 complete control)
In short: (§1)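 Loam/sand soil mix; compound in non-phytotoxic solvent + surfactant. Pre: directed soil spray right after planting seed. Post: potted plants 2–10 cm, 1–2 leaf stage, sprayed with same formulation.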

[2] = test system: crabgrass, large; experiment: Test A preemergence; format: in vivo, Digitaria sanguinalis; conditions: 0 to 100 scale (0 no effect, 100 complete control)
In short: as §1

[3] = test system: foxtail, giant; experiment: Test A preemergence; format: in vivo, Setaria faberii; conditions: 0 to 100 scale (0 no effect, 100 complete control)
In short: as §1

[4] = test system: morningglory; experiment: Test A preemergence; format: in vivo, Ipomoea spp.; conditions: 0 to 100 scale (0 no effect, 100 complete control)
In short: as §1

[5] = test system: pigweed; experiment: Test A preemergence; format: in vivo, Amaranthus retroflexus; conditions: 0 to 100 scale (0 no effect, 100 complete control)
In short: as §1

[6] = test system: velvetleaf; experiment: Test A preemergence; format: in vivo, Abutilon theophrasti; conditions: 0 to 100 scale (0 no effect, 100 complete control)
In short: as §1

[7] = test system: wheat; experiment: Test A preemergence; format: in vivo, Triticum aestivum; conditions: 0 to 100 scale (0 no effect, 100 complete control)
In short: as §1

[8] = test system: corn; experiment: Test A preemergence; format: in vivo, Zea mays; conditions: 0 to 100 scale (0 no effect, 100 complete control)
In short: as §1

[9] = test system: barnyardgrass; experiment: Test A postemergence; format: in vivo, Echinochloa crus-galli; conditions: 0 to 100 scale (0 no effect, 100 complete control), approx. 10 d
In short: as §1

[10] = test system: crabgrass, large; experiment: Test A postemergence; format: in vivo, Digitaria sanguinalis; conditions: 0 to 100 scale (0 no effect, 100 complete control), approx. 10 d
In short: as §1

[11] = test system: foxtail, giant; experiment: Test A postemergence; format: in vivo, Setaria faberii; conditions: 0 to 100 scale (0 no effect, 100 complete control), approx. 10 d
In short: as §1

[12] = test system: morningglory; experiment: Test A postemergence; format: in vivo, Ipomoea spp.; conditions: 0 to 100 scale (0 no effect, 100 complete control), approx. 10 d
In short: as §1

[13] = test system: pigweed; experiment: Test A postemergence; format: in vivo, Amaranthus retroflexus; conditions: 0 to 100 scale (0 no effect, 100 complete control), approx. 10 d
In short: as §1

[14] = test system: velvetleaf; experiment: Test A postemergence; format: in vivo, Abutilon theophrasti; conditions: 0 to 100 scale (0 no effect, 100 complete control), approx. 10 d
In short: as §1

[15] = test system: wheat; experiment: Test A postemergence; format: in vivo, Triticum aestivum; conditions: 0 to 100 scale (0 no effect, 100 complete control), approx. 10 d
In short: as §1

[16] = test system: corn; experiment: Test A postemergence; format: in vivo, Zea mays; conditions: 0 to 100 scale (0 no effect, 100 complete control), approx. 10 d
In short: as §1

[17] = test system: rice; experiment: Test C flooded paddy test; format: in vivo, Oryza sativa; conditions: Flood, applied to paddy water, rating after 13 to 15 d
Excerpt: (§2) At time of treatment, test pots were flooded to 3 cm above the soil surface, treated by application of test compounds directly to the paddy water, and then maintained at that water depth for the duration of the test. Treated plants and controls were maintained in a greenhouse for 13 to 15 d, after which time all species were compared to controls and visually evaluated. […] A dash (-) response means no test result.

[18] = test system: sedge, umbrella; experiment: Test C flooded paddy test; format: in vivo, Cyperus difformis; conditions: Flood, applied to paddy water, rating after 13 to 15 d
Excerpt: as §2

[19] = test system: ducksalad; experiment: Test C flooded paddy test; format: in vivo, Heteranthera limosa; conditions: Flood, applied to paddy water, rating after 13 to 15 d
Excerpt: as §2

[20] = test system: barnyardgrass; experiment: Test C flooded paddy test; format: in vivo, Echinochloa crus-galli; conditions: Flood, applied to paddy water, rating after 13 to 15 d
Excerpt: as §2

**Q.** Which “Plant response rating, Barnyardgrass” value ([1]; 125 g ai/ha) does the source give for Cc1nc(-c2ccc(C(F)(F)F)cc2)nn1Cc1cccc(C(F)(F)F)c1 [Compound 3] here?
**A.** The value was 0.

**Q.** And the “Plant response rating, Barnyardgrass” value ([1]; 500 g ai/ha, approx. 10 d)?
**A.** Its value is 0.

**Q.** What about the “Plant response rating, Crabgrass, Large” value ([2]; 125 g ai/ha) of the same compound?
**A.** Its value is 0.

**Q.** And the “Plant response rating, Crabgrass, Large” value ([2]; 500 g ai/ha, approx. 10 d)?
**A.** The value was 40.

**Q.** And the “Plant response rating, Foxtail, Giant” value ([3]; 125 g ai/ha)?
**A.** Its value is 0.

**Q.** What about the “Plant response rating, Foxtail, Giant” value ([3]; 500 g ai/ha, approx. 10 d) of the same compound?
**A.** Its value is 30.

**Q.** And the “Plant response rating, Morningglory” value ([4]; 125 g ai/ha)?
**A.** The value was 0.

**Q.** What about the “Plant response rating, Morningglory” value ([4]; 500 g ai/ha, approx. 10 d) of the same compound?
**A.** Its value is 0.

**Q.** What about the “Plant response rating, Pigweed” value ([5]; 125 g ai/ha) of the same compound?
**A.** The value was 10.

**Q.** What about the “Plant response rating, Pigweed” value ([5]; 500 g ai/ha, approx. 10 d) of the same compound?
**A.** The value was 80.

**Q.** What about the “Plant response rating, Velvetleaf” value ([6]; 125 g ai/ha) of the same compound?
**A.** The value was 0.

**Q.** What about the “Plant response rating, Velvetleaf” value ([6]; 500 g ai/ha, approx. 10 d) of the same compound?
**A.** Its value is 0.

**Q.** What about the “Plant response rating, Wheat” value ([7]; 125 g ai/ha) of the same compound?
**A.** The value was 0.

**Q.** What about the “Plant response rating, Wheat” value ([7]; 500 g ai/ha, approx. 10 d) of the same compound?
**A.** The value was 0.

**Q.** What about the “Plant response rating, Corn” value ([8]; 125 g ai/ha) of the same compound?
**A.** Its value is 0.

**Q.** What about the “Plant response rating, Corn” value ([8]; 500 g ai/ha, approx. 10 d) of the same compound?
**A.** Its value is 0.

**Q.** And the “Plant response rating, Barnyardgrass” value ([9]; 125 g ai/ha)?
**A.** Its value is 0.

**Q.** And the “Plant response rating, Barnyardgrass” value ([9]; 500 g ai/ha)?
**A.** The value was 10.

**Q.** And the “Plant response rating, Crabgrass, Large” value ([10]; 125 g ai/ha)?
**A.** The value was 10.

**Q.** And the “Plant response rating, Crabgrass, Large” value ([10]; 500 g ai/ha)?
**A.** The value was 40.

**Q.** And the “Plant response rating, Foxtail, Giant” value ([11]; 125 g ai/ha)?
**A.** The value was 10.

**Q.** And the “Plant response rating, Foxtail, Giant” value ([11]; 500 g ai/ha)?
**A.** Its value is 30.

**Q.** And the “Plant response rating, Morningglory” value ([12]; 125 g ai/ha)?
**A.** Its value is 40.

**Q.** What about the “Plant response rating, Morningglory” value ([12]; 500 g ai/ha) of the same compound?
**A.** The value was 80.

**Q.** And the “Plant response rating, Pigweed” value ([13]; 125 g ai/ha)?
**A.** The value was 60.

**Q.** What about the “Plant response rating, Pigweed” value ([13]; 500 g ai/ha) of the same compound?
**A.** The value was 100.

**Q.** And the “Plant response rating, Velvetleaf” value ([14]; 125 g ai/ha)?
**A.** The value was 10.

**Q.** And the “Plant response rating, Velvetleaf” value ([14]; 500 g ai/ha)?
**A.** The value was 40.

**Q.** What about the “Plant response rating, Wheat” value ([15]; 125 g ai/ha) of the same compound?
**A.** The value was 0.

**Q.** And the “Plant response rating, Wheat” value ([15]; 500 g ai/ha)?
**A.** Its value is 0.

**Q.** And the “Plant response rating, Corn” value ([16]; 125 g ai/ha)?
**A.** Its value is 10.

**Q.** What about the “Plant response rating, Corn” value ([16]; 500 g ai/ha) of the same compound?
**A.** The value was 20.

**Q.** What about the “Rice plant response rating (0 to 100)” value ([17]; 31 g ai/ha) of the same compound?
**A.** The value was 0.

**Q.** What about the “Rice plant response rating (0 to 100)” value ([17]; 62 g ai/ha) of the same compound?
**A.** The value was 0.

**Q.** And the “Rice plant response rating (0 to 100)” value ([17]; 125 g ai/ha)?
**A.** Its value is 0.

**Q.** And the “Rice plant response rating (0 to 100)” value ([17]; 250 g ai/ha)?
**A.** Its value is 0.

**Q.** What about the “Sedge, Umbrella plant response rating (0 to 100)” value (from here on “Sedge … (0 to 100)”) ([18]; 31 g ai/ha) of the same compound?
**A.** Its value is 0.

**Q.** What about the “Sedge … (0 to 100)” value ([18]; 62 g ai/ha) of the same compound?
**A.** Its value is 0.

**Q.** And the “Sedge … (0 to 100)” value ([18]; 125 g ai/ha)?
**A.** Its value is 40.

**Q.** What about the “Sedge … (0 to 100)” value ([18]; 250 g ai/ha) of the same compound?
**A.** The value was 50.

**Q.** What about the “Ducksalad plant response rating (0 to 100)” value ([19]; 31 g ai/ha) of the same compound?
**A.** Its value is 0.

**Q.** What about the “Ducksalad plant response rating (0 to 100)” value ([19]; 62 g ai/ha) of the same compound?
**A.** Its value is 20.

**Q.** And the “Ducksalad plant response rating (0 to 100)” value ([19]; 125 g ai/ha)?
**A.** Its value is 30.

**Q.** And the “Ducksalad plant response rating (0 to 100)” value ([19]; 250 g ai/ha)?
**A.** The value was 40.

**Q.** And the “Barnyardgrass plant response rating (0 to 100)” value ([20]; 31 g ai/ha)?
**A.** Its value is 0.

**Q.** What about the “Barnyardgrass plant response rating (0 to 100)” value ([20]; 62 g ai/ha) of the same compound?
**A.** Its value is 20.

**Q.** What about the “Barnyardgrass plant response rating (0 to 100)” value ([20]; 125 g ai/ha) of the same compound?
**A.** Its value is 20.

**Q.** And the “Barnyardgrass plant response rating (0 to 100)” value ([20]; 250 g ai/ha)?
**A.** The value was 20.
